Measured values from the supplement of paper PMC10307832.

Columns and labels:
Assay in all cases: relative viability (nuclei count vs DMSO), 5 days (fraction); higher = more cells survive
EKVX = test system: EKVX
Procedure, shortened: (§1)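 For relative viability, nuclei counts in treated wells were divided by those in vehicle wells. Lung cancer cell lines had been pin-tool dosed in 1536-well plates the day after seeding and cultured for 5 days, then fixed and stained in one step (final 0.05% Triton X-100, 1% formaldehyde, 1 ug/ml Hoechst) and imaged at 4×. Doses were one drug alone or a fixed anchor-drug dose plus five library-drug doses (not always all listed) in √10 steps, and values are duplicate-plate medians.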

EMC-BAC-2 = test system: EMC-BAC-2
Procedure, shortened: as §1

EPLC-272H = test system: EPLC-272H
Procedure, shortened: as §1

HCC-78 = test system: HCC-78
Procedure, shortened: as §1

HCC-827 = test system: HCC-827
Procedure, shortened: as §1

LCLC-103H = test system: LCLC-103H
Procedure, shortened: as §1

LK-2 = test system: LK-2
Procedure, shortened: as §1

LU99A = test system: LU99A
Procedure, shortened: as §1

LXF-289 = test system: LXF-289
Procedure, shortened: as §1

NCI-H1563 = test system: NCI-H1563
Procedure, shortened: as §1

NCI-H1666 = test system: NCI-H1666
Procedure, shortened: as §1

NCI-H1975 = test system: NCI-H1975
Procedure, shortened: as §1

NCI-H2126 = test system: NCI-H2126
Procedure, shortened: as §1

NCI-H23 = test system: NCI-H23
Procedure, shortened: as §1

NCI-H2405 = test system: NCI-H2405
Procedure, shortened: as §1

NCI-H322M = test system: NCI-H322M
Procedure, shortened: as §1

PC-14 = test system: PC-14
Procedure, shortened: as §1

RERF-LC-KJ = test system: RERF-LC-KJ
Procedure, shortened: as §1

SK-LU-1 = test system: SK-LU-1
Procedure, shortened: as §1

SW 1573 = test system: SW 1573
Procedure, shortened: as §1

SMILES: COc1nc(C)cnc1NS(=O)(=O)c1cccnc1-c1ccc(-c2nnco2)cc1 [Zibotentan] + Cc1nc(NC(=O)N2CCC[C@H]2C(N)=O)sc1-c1ccnc(C(C)(C)C(F)(F)F)c1 [Alpelisib] (partner 2 µM)
- relative viability (EKVX; first compound 0.08 µM): 0.927
- relative viability (EKVX; first compound 0.253 µM): 0.86
- relative viability (EKVX; first compound 0.8 µM): 0.775
- relative viability (EKVX; first compound 2.53 µM): 0.82
- relative viability (EMC-BAC-2; first compound 0.08 µM): 0.78
- relative viability (EMC-BAC-2; first compound 0.253 µM): 0.72
- relative viability (EMC-BAC-2; first compound 0.8 µM): 0.714
- relative viability (EMC-BAC-2; first compound 2.53 µM): 0.782
- relative viability (EPLC-272H; first compound 0.08 µM): 0.805
- relative viability (EPLC-272H; first compound 0.253 µM): 0.908
- relative viability (EPLC-272H; first compound 0.8 µM): 0.979
- relative viability (EPLC-272H; first compound 2.53 µM): 0.943
- relative viability (HCC-78; first compound 0.08 µM): 0.342
- relative viability (HCC-78; first compound 0.253 µM): 0.342
- relative viability (HCC-78; first compound 0.8 µM): 0.23
- relative viability (HCC-78; first compound 2.53 µM): 0.374
- relative viability (HCC-827; first compound 0.08 µM): 1.01
- relative viability (HCC-827; first compound 0.253 µM): 1.07
- relative viability (HCC-827; first compound 0.8 µM): 0.808
- relative viability (HCC-827; first compound 2.53 µM): 0.975
- relative viability (LCLC-103H; first compound 0.08 µM): 0.955
- relative viability (LCLC-103H; first compound 0.253 µM): 0.969
- relative viability (LCLC-103H; first compound 0.8 µM): 1.01
- relative viability (LCLC-103H; first compound 2.53 µM): 1.05
- relative viability (LK-2; first compound 0.08 µM): 1.08
- relative viability (LK-2; first compound 0.253 µM): 0.911
- relative viability (LK-2; first compound 0.8 µM): 0.889
- relative viability (LK-2; first compound 2.53 µM): 1.46
- relative viability (LU99A; first compound 0.08 µM): 0.516
- relative viability (LU99A; first compound 0.253 µM): 0.58
- relative viability (LU99A; first compound 0.8 µM): 0.545
- relative viability (LU99A; first compound 2.53 µM): 0.58
- relative viability (LXF-289; first compound 0.08 µM): 1.03
- relative viability (LXF-289; first compound 0.253 µM): 1.04
- relative viability (LXF-289; first compound 0.8 µM): 1.11
- relative viability (LXF-289; first compound 2.53 µM): 1.09
- relative viability (NCI-H1563; first compound 0.08 µM): 0.978
- relative viability (NCI-H1563; first compound 0.253 µM): 0.666
- relative viability (NCI-H1563; first compound 0.8 µM): 1.01
- relative viability (NCI-H1563; first compound 2.53 µM): 1.02
- relative viability (NCI-H1666; first compound 0.08 µM): 1.12
- relative viability (NCI-H1666; first compound 0.253 µM): 0.724
- relative viability (NCI-H1666; first compound 0.8 µM): 1.18
- relative viability (NCI-H1666; first compound 2.53 µM): 0.993
- relative viability (NCI-H1975; first compound 0.08 µM): 0.635
- relative viability (NCI-H1975; first compound 0.253 µM): 0.548
- relative viability (NCI-H1975; first compound 0.8 µM): 0.642
- relative viability (NCI-H1975; first compound 2.53 µM): 0.585
- relative viability (NCI-H2126; first compound 0.08 µM): 0.827
- relative viability (NCI-H2126; first compound 0.253 µM): 0.755
- relative viability (NCI-H2126; first compound 0.8 µM): 0.726
- relative viability (NCI-H2126; first compound 2.53 µM): 0.762
- relative viability (NCI-H23; first compound 0.08 µM): 0.679
- relative viability (NCI-H23; first compound 0.253 µM): 0.7
- relative viability (NCI-H23; first compound 0.8 µM): 0.681
- relative viability (NCI-H23; first compound 2.53 µM): 0.726
- relative viability (NCI-H2405; first compound 0.08 µM): 0.787
- relative viability (NCI-H2405; first compound 0.253 µM): 0.65
- relative viability (NCI-H2405; first compound 0.8 µM): 0.745
- relative viability (NCI-H2405; first compound 2.53 µM): 0.948
- relative viability (NCI-H322M; first compound 0.08 µM): 0.692
- relative viability (NCI-H322M; first compound 0.253 µM): 0.704
- relative viability (NCI-H322M; first compound 0.8 µM): 0.719
- relative viability (NCI-H322M; first compound 2.53 µM): 0.905
- relative viability (PC-14; first compound 0.08 µM): 0.98
- relative viability (PC-14; first compound 0.253 µM): 0.872
- relative viability (PC-14; first compound 0.8 µM): 1.06
- relative viability (PC-14; first compound 2.53 µM): 0.944
- relative viability (RERF-LC-KJ; first compound 0.08 µM): 0.865
- relative viability (RERF-LC-KJ; first compound 0.253 µM): 0.898
- relative viability (RERF-LC-KJ; first compound 0.8 µM): 0.826
- relative viability (RERF-LC-KJ; first compound 2.53 µM): 0.83
- relative viability (SK-LU-1; first compound 0.08 µM): 1.08
- relative viability (SK-LU-1; first compound 0.253 µM): 0.629
- relative viability (SK-LU-1; first compound 0.8 µM): 1.12
- relative viability (SK-LU-1; first compound 2.53 µM): 0.907
- relative viability (SW 1573; first compound 0.08 µM): 0.726
- relative viability (SW 1573; first compound 0.253 µM): 0.639
- relative viability (SW 1573; first compound 0.8 µM): 0.775
- relative viability (SW 1573; first compound 2.53 µM): 0.758
